“And” between values parts separate entries of the source, which are not always exact repeats. Identical values can stand only once.
Assays:
MCP-1 = assay: DIN mouse model: hepatic MCP-1 gene expression; type: in vivo; conditions: liver, 20 mg/kg group
Protocol: (§1) Gene expression analysis. Hepatic expression levels of genes involved in lipid metabolism (FAS, SREBP1, ACC1, SCD1), cholesterol metabolism (HMG-CoAR, LDLR), SREBP proteolysis (SCAP, INSIG1), ER stress (PERK), oxidative stress (NRF2), inflammation (MCP-1), and fibrosis (collagen 1α1) were quantified by RTqPCR. Expression level was normalized to 18S gene expression and relative expression to vehicle group was calculated with the […] method.
(§2) Male C57Bl/6J mice (8 weeks old) were housed in enriched ventilated cages (31×12.5×12.7 cm) throughout the experimental phase. Animals' cages litters were changed at least once a week. Animal were housed 5 per cage on inverted 12-hour light cycle (at 09:00 am lights off), 22±2° C. and 55±10% relative humidity. The acclimation period was 20 days. During the acclimation period, all mice were fed a standard diet (RM1 (E) 801492, SDS) and tap water ad libitum. After the acclimation period, mice were fed with the DIN diet (60% fat, cholesterol enriched) and fructose-enriched tap water ad libitum until the end of the experiment.
(§3) At 6 weeks of diet, mice were 4-hour fasted (09:00 am to 1:00 pm) and blood (150 μl/EDTA) was collected at 01:00 pm by retro-orbital bleeding under isoflurane anesthesia. Mice were then allocated in 2 homogenous groups (n=12/group) according to their plasma levels of ALT (average levels: 685U/L), AST (average levels: 627U/L) and HOMA-IR index (average value: 4.7), into 2 homogenous groups (see values at day 0 in Tables 15A and 15B ALT/AST and Tables 16A and 16B for HOMA-IR). Mice were then treated once daily by oral gavage with vehicle (Group 1) or Compound #37 at 20 mg/kg (Group 2) for 70 days.
(§4) Hepatic expression levels of genes involved in lipid (FAS, SREBP1, ACC1, SCD1), cholesterol metabolism (HMG-CoAR, LDLR), in SREBP proteolysis (SCAP, INSIG1), in ER stress (PERK), oxidative stress (NRF2), and inflammation (MCP-1) were not changed. However, expression of collagen 1α1, involved in liver fibrosis, was reduced by 66% in mice treated with Compound #37 (p<0.05 vs. vehicle).

LDLR = assay: Short-term Paigen-diet NASH mouse model: hepatic LDLR gene expression (RT-qPCR); type: in vivo; conditions: liver; for DDct: LDLR Dct relative to vehicle mean; for Dct: LDLR minus 18S; for 2DDct: LDLR relative expression to vehicle group, normalized to 18S; for LDLR: raw RT-qPCR value
Protocol: To investigate whether Compound #37 prevents the development of pathology associated with NASH and steatosis in an acute exploratory disease model, a study was conducted using a diet-induced acute liver steatosis model in mice. As described below, in this study, C57BL/6J mice were initiated on the Paigen diet and simultaneously treated with Compound #37 (5, 20, and 40 mg/kg/day) or vehicle control (20% HPβCD 10 mL/kg/day) by oral gavage for 21 days.
After acclimation, 8-week old male C57Bl/6J mice (Charles River) weighing about 25 g were randomized in 4 groups according their body weight and treated once daily around noon by oral gavage with vehicle, or Compound #37 at various for 21 days as follows: Group 1: vehicle-20% (2-hydroxypropyl)-β-cyclodextrin (HP-β-CD) (n=10); Group 2: Compound #37, 5 mg/kg (n=10) Group 3: Compound #37, 20 mg/kg (n=10) Group 4: Compound #37, 40 mg/kg (n=10). During the treatment period, body weight and food intake (measured over 24h) were measured 3 times per week and once a week, respectively. During the acclimation, all mice were fed a standard diet (Special Diets Services RM1 (E), product no. 801492) and tap water ad libitum. After the acclimation period, mice were fed until the end of the experiment with a 60% high fat Paigen diet (60 kcal % fat, 1.25% cholesterol, and 0.5% cholate; D11061901, Research Diet) and tap water ad libitum.
as §1

[1] = DIN mouse model: body weight, food and water intake, mortality; type: in vivo
Protocol: as §2, §3
Results. […] Water intake tended to be higher in mice treated with, resulting in a 17% increase in cumulative water intake (p<0.05 vs. vehicle). […]

INSIG1 = assay: DIN mouse model: hepatic INSIG1 gene expression; type: in vivo; set-up: key to 2^DDct: expression relative to vehicle group, normalized to 18S; conditions: for 2^DDct / DDct / Dct / INSIG1: Gene Expression: INSIG1, 20 mg/kg group; for 18S: Gene Expression: INSIG1 table, 18S reference, 20 mg/kg group
Protocol: as §1, §2, §3, §4

[2] = 28-day repeat-dose toxicity study in healthy rats: plasma exposure (AUC24h); type: in vivo, rat; conditions: day 28
Protocol: In the repeat-dose toxicity study in rats (Compound #37P018), Compound #37 was given at 0 (vehicle control), 50, 100/75, and 200/150 mg/kg/day for 28 days; some animals from each dose group continued into a 28-day recovery period. After 28 days of treatment, liver neutral lipids from treated and control animals were analyzed with Oil Red O staining.
The more pronounced effects in female rats compared with male rats is consistent with the observed higher plasma exposure (>4-fold higher area under the curve over 24 hours [AUC24h]) at day 28 in females compared with males. Evidence of an effect of Compound #37 on leptin concentrations was also observed in female rats in a dose-dependent manner. As animals gain weight, leptin concentrations naturally increase due to its origin from adipose tissue. Female rats treated with Compound #37 had lower concentrations of leptin compared with the vehicle control group during the treatment period (day 4 and day 28), which was not observed after treatment termination and recovery (day 56) (FIG. 7).

[3] = individual animals, vs vehicle mean, 20 mg/kg
[4] = Compound #37 5 mg/kg, group mean, n=10
[5] = Compound #37 5 mg/kg, individual animals, 5 mg/kg
[6] = Compound #37 20 mg/kg, group mean, n=6
[7] = Compound #37 20 mg/kg, individual animals, 20 mg/kg

CC(C)Cc1cc(-c2nc(-c3ccc(NS(=O)(=O)C(F)(F)F)cc3Cl)cs2)ccn1 [Compound 37, N-(3-chloro-4-(2-(2-isobutylpyridin-4-yl)thiazol-4-yl)phenyl)-1,1,1-trifluoromethanesulfonamide]
MCP-1 Dct (MCP-1; individual animals, normalised to 18S, 20 mg/kg): 14.34 and 13.63 and 15.61 and 13.59 and 13.54 and 13.66 and 14.89 and 16.32 and 15.5 and 15.74 and 11.79
MCP-1 2^DDct (MCP-1; [3]): 0.61 and 0.99 and 0.25 and 1.02 and 1.06 and 0.97 and 0.41 and 0.15 and 0.27 and 0.23 and 3.55
MCP-1 DDct (MCP-1; [3]): 0.72 and 0.01 and 1.99 and −0.03 and −0.08 and 0.04 and 1.27 and 2.7 and 1.88 and 2.12 and −1.83
MCP-1 (Ct) (MCP-1; individual animals, 20 mg/kg): 26.89 and 26.18 and 28.45 and 26.02 and 25.89 and 26.25 and 26.62 and 28.83 and 27 and 27.29 and 24.14
MCP-1 2^DDct (MCP-1; mean, n 11): 0.87
MCP-1 (Ct) (MCP-1; mean, n 11): 26.7
MCP-1 DDct (MCP-1; mean, n 11): 0.80
MCP-1 Dct (MCP-1; mean, n 11): 14.4
DDct (LDLR; [4]): 0.18
DDct (LDLR; [5]): −0.92 and 0.13 and −0.60 and −0.98 and 1.46 and 1.39 and 0.04 and 0.33 and 0.52 and 0.37
DDct (LDLR; [6]): −0.09
DDct (LDLR; [7]): 0.38 and 0.91 and 0.32 and −1.22 and 0.42 and −1.37
Dct (LDLR; [4]): 12.8
Dct (LDLR; [5]): 11.74 and 12.79 and 12.06 and 11.68 and 14.12 and 14.05 and 12.7 and 12.99 and 13.18 and 13.03
Dct (LDLR; [6]): 12.6
Dct (LDLR; [7]): 13.04 and 13.57 and 12.98 and 11.44 and 13.08 and 11.29
2DDct (LDLR; [4]): 1.03
2DDct (LDLR; [5]): 1.89 and 0.91 and 1.51 and 1.97 and 0.36 and 0.38 and 0.97 and 0.79 and 0.70 and 0.77
2DDct (LDLR; [6]): 1.29
2DDct (LDLR; [7]): 0.77 and 0.53 and 0.80 and 2.33 and 0.75 and 2.58
LDLR (LDLR; [4]): 25.1
LDLR (LDLR; [5]): 25.2 and 25.9 and 23.67 and 25.03 and 26.15 and 27.4 and 24.3 and 24.78 and 24.32 and 24.15
LDLR (LDLR; [6]): 24.8
LDLR (LDLR; [7]): 25.95 and 25.86 and 25.18 and 24.47 and 24.57 and 22.55
body weight and body weight gain ([1]; 20 mg/kg p.o. daily, 70 days): non-significant trend towards lower
tolerability ([1]; 20 mg/kg/day, 10 weeks): generally well tolerated
2^DDct (INSIG1; individual animal): 2.07 and 2.24 and 0.78 (2×) and 1.54 and 1.51 and 1.65 and 1.45 and 1.43 and 0.46 and 2.84
DDct (INSIG1; individual animal): −1.05 and −1.17 and 0.36 (2×) and −0.63 and −0.60 and −0.73 and −0.54 and −0.52 and 1.13 and −1.51
Dct (INSIG1; individual animal): 9.85 and 9.73 and 11.26 (2×) and 10.27 and 10.3 and 10.17 and 10.36 and 10.38 and 12.03 and 9.39
INSIG1 (INSIG1; individual animal): 22.4 and 22.28 and 24.1 and 22.7 and 22.65 and 22.76 (2×) and 22.09 and 22.89 and 23.58 and 21.74
2^DDct (INSIG1; mean, n 11): 1.52
DDct (INSIG1; mean, n 11): −0.44
Dct (INSIG1; mean, n 11): 10.5
INSIG1 (INSIG1; mean, n 11): 22.7
18S (INSIG1; individual animal, 20 mg/kg): 12.55 (2×) and 12.84 and 12.43 and 12.35 (2×) and 12.59 and 11.73 and 12.51 and 11.5 and 11.55
18S (INSIG1; mean, n 11): 12.3
plasma exposure (AUC24h) in females compared with males [2]: > 4 fold

Reference: patent US10183015B2, “Heterocyclic compounds and methods of use” (Medivation Technologies LLC, priority 2015, dated 2019)
